Laboratory results: paper PMC13313556, “Development and characterization of triazole-based WDR5 inhibitors for the treatment of glioblastoma” (JCI Insight, 2026)
Like-named read-outs stand apart in the source and are kept apart here.

Assays:
[1] = MDCK passive permeability; assay type: in vitro ADME, canine; settings: dog, MDCK
[2] = Microsomal intrinsic clearance, human; assay type: in vitro ADME; settings: for CLint scaled at 1 µM: pooled liver microsomes, human microsomes; for Pred CLhep (h): scaled predicted hepatic clearance, human
Description: (§1) SUPPLEMENTAL DMPK METHODS
(§2) All in vitro DMPK screening assays were performed at Q2 Solutions, Inc. (Indianapolis,
(§3) IN, USA). Microsomal Intrinsic Clearance: Test compounds (1 µM) were incubated
(§4) with 1 mg/mL of pooled liver microsomes in phosphate buffer at 37 °C. Samples were
(§5) taken at 0, 5, 10, 15, 30 and 45 min and analyzed by LC-MS. Testosterone was used as
(§6) the positive control. Two replicates were obtained and average CLint values are reported. […]

[3] = Microsomal intrinsic clearance, rat; assay type: in vitro ADME; settings: for CLint scaled at 1 µM: pooled liver microsomes, rat microsomes; for Pred CLhep (r): scaled predicted hepatic clearance, rat
Description: as §1, §2, §3, §4, §5, §6

[4] = Plasma protein binding (equilibrium dialysis), human; assay type: in vitro ADME
Description: Plasma Protein and Brain Homogenate Binding: Plasma protein binding assays in human and rat plasma were performed using equilibrium dialysis method and a fast gradient elution LC-MS/MS to estimate the percent of compound which binds to protein over a 4.5 hour incubation period at 37 °C, while undergoing orbital shaking. Assay was performed using a HT dialysis micro equilibrium device using dialysis membrane strips. A time 0 sample was taken after protein matrix is created and samples were taken from […]
both the protein side and buffer side of the membrane after incubation and the parent compound was quantified. Brain homogenate binding was performed similarly as above using human brain homogenate, equilibrium dialysis, and LC-MS/MS methods. Fraction unbound is calculated by dividing the concentration of the buffer side by the concentration of the matrix side (plasma or brain). […]

L0 CSCs = experiment: 7-day CTG viability assay (GI50, cross-titrations) in L0; assay type: cell-based; settings: Homo sapiens; L0, 7-day CTG; pGI50 = −log10[GI50(M)]
Description: (§7) For GI50 determination, compounds were stamped in technical triplicate, while for synergy cross-titrations dose-response matrices were prepared in technical duplicate. Different CSC lines, grown in suspension as spheroids, were split with Accutase and seeded directly on top of the prestamped compounds (50 μL of NBMc and 700 cells/well). The outer 4 rows (A,B and O,P row IDs) and 4 columns (1,2 and 23,24 column IDs) were filled with 80 μL of PBS to minimize evaporation. Cells were incubated with compounds for 7 days at 37°C/5% CO2 prior to the addition of 25 μL/well Cell-Titer Glo (Promega) and luminescence quantification on a Revvity EnVision plate reader. […] For the cross-titrations of 2 compounds, synergy scores were calculated using the MuSyC webserver ([79]).

L1 CSCs = experiment: 7-day CTG viability assay (GI50, cross-titrations, irradiation) in L1; assay type: cell-based, human; settings: for GI50: Homo sapiens; for log(GI50): L1 + RAD (2 Gy)
Description: as §7, with “([79]). […]” for “([79]).”
(§8) antagonist (p53 activator) RG7112 following either 0 Gy or 2 Gy irradiation. Mean values are presented from a single biological replicate conducted in technical triplicate. Follow- […]
(§9) Cell viability was quantified as described in the Materials and Methods four days post-irradiation (seven days total). The

L2 CSCs = experiment: 7-day CTG viability assay (GI50, cross-titrations, irradiation) in L2; assay type: cell-based, human; settings: for GI50: Homo sapiens
Description: as §7, with “([79]). […]” for “([79]).”
as §8, §9

3832 CSCs = experiment: 7-day CTG viability assay (GI50, cross-titrations, irradiation) in 3832; assay type: cell-based, human
Description: as §7, with “([79]). […]” for “([79]).”
as §8, §9

WDR5 = WDR5 (Homo sapiens, UniProt P61964); experiment: WDR5 TR-FRET binding assay (displacement of labeled WIN-site peptide); design: human WDR5 residues Ser22-Cys334 were codon optimized for E. coli; made in house; host or cells: E. coli T7 Express lysY/Iq (New England Biolabs), pET27 plasmid
Description: Recombinant human WDR5 was cloned, expressed, and purified as previously described ([37]). Briefly, human WDR5 residues Ser22-Cys334 were codon optimized for E. coli and cloned into a pET27 plasmid downstream of a SUMO-protease cleavable NT-His6-SUMO fusion. […] Induced cultures were pelleted; resuspended in 1X PBS pH 7.4, 300 mM NaCl, 20 mM imidazole, 5 mM β-Me, and 10% glycerol; and lysed via sonication. […] His-SUMO-WDR5 used in the TR-FRET assay was further purified via size exclusion chromatography using 1X PBS pH 7.4, 300 mM NaCl, 5 mM β-Me running buffer, concentrated to 1–2 mg/mL, aliquoted, and froze at –80°C for storage. Tag free WDR5 used for crystallography was dialyzed overnight with SUMO protease and passed over an NiNTA column to remove the His6-SUMO tag. Tag free WDR5 was further purified via size exclusion chromatography using 20 mM HEPES pH 7.0, 250 mM NaCl, and 5 mM DTT; concentrated to 10 mg/mL; aliquoted; and frozen at –80°C for storage.
Inhibitor Ki values were measured using a previously published competitive TR-FRET assay ([37]). […] The reported Ki values were calculated from at least 3 biological replicates completed in technical quadruplicate.

[5] = human plasma, read-out: PPB % fu (h)
[6] = summary of Table 1, read-out: free fraction
[7] = L1, 0 Gy, read-out: log(GI50) (converted)
[8] = L1, 7-day CTG, pGI50 = −log10[GI50(M)], read-out: pGI50 (converted)
[9] = L2, 7-day CTG, pGI50 = −log10[GI50(M)], read-out: pGI50 (converted)
[10] = Homo sapiens, 3832 + RAD (2 Gy), read-out: log(GI50) (converted)
[11] = Homo sapiens, 3832, 0 Gy, read-out: log(GI50) (converted)
[12] = Homo sapiens, […], 3832, 7-day CTG, pGI50 = −log10[GI50(M)], read-out: pGI50 (converted)
[13] = L2, 0 Gy, read-out: log(GI50) (converted)

Compound	Papp A→B [1]	Papp A→B ([1]; favorable permeability)	CLint scaled at 1 µM [2]	Pred CLhep (h) [2]	CLint scaled at 1 µM [3]	Pred CLhep (r) [3]	fraction unbound at […] [4, 5]	fraction unbound at […] [4, 6]	GI50 (L0 CSCs)	GI50 (L1 CSCs; [7])	GI50 (L1 CSCs; [8])	log(GI50) (L1 CSCs)	GI50 (L2 CSCs; [9])	GI50 (3832 CSCs; [10])	GI50 (3832 CSCs; [11])	GI50 (3832 CSCs; [12])	Ki (WDR5)	GI50 (L2 CSCs; [13])	also measured
COc1cc(Cn2nnc3c2CCc2c-3cc(Cn3ccnc3C)cc2C2CC2)ccc1F [C3TD343]	5.2 ×10⁻⁶ cm/s	> 2 ×10⁻⁶ cm/s	710 mL/min/kg	20.3 mL/min/kg	378 mL/min/kg	64.1 mL/min/kg	0.007	~0.02	5.5e-06 M	7.94e-06 M	8.32e-06 M	-5.1 M	6.31e-06 M	3.16e-06 M	3.16e-06 M	2.51e-06 M	5.9 ± 0.3 nM		GI50 (L2 CSCs; L2 + RAD (2 Gy), read-out: log(GI50) (converted)): 7.94e-06 M
COc1cc(CN2CCc3c(cc(Cn4ccn(C)c4=N)cc3-c3ccc(F)cc3C)C2=O)cc(OC)c1 [C16, reference compound]	0.1 ×10⁻⁶ cm/s		155 mL/min/kg	18.3 mL/min/kg	< 9.2 mL/min/kg	< 14.7 mL/min/kg	0.003		5.01e-07 M	1.26e-05 M	1.26e-05 M	-4.9 M	3.98e-06 M		1e-06 M		0.03 ± 0.01 nM	2e-06 M	fraction unbound at […] ([4]; summary of Table 1, read-out: plasma protein binding): < 0.01; log(GI50) (L2 CSCs; L2 + RAD (2 Gy)): -5.7 M; log(GI50) (3832 CSCs; 3832 + RAD (2 Gy)): -6.0 M; GI50 (3832 CSCs; Homo sapiens, 3832, 7-day CTG, pGI50 = −log10[GI50(M)], read-out: pGI50 (converted)): 8.32e-07 M
COc1cc(Cn2nnc3c2CCc2c(-c4cn(C)nc4C(F)(F)F)cc(Cn4ccnc4C)cc2-3)cc(OC)c1 [C3TD078]	4.9 ×10⁻⁶ cm/s	> 2 ×10⁻⁶ cm/s	1200 mL/min/kg	20.6 mL/min/kg	316 mL/min/kg	63.1 mL/min/kg	0.016	~0.02	1.26e-06 M	5.01e-06 M	5.01e-06 M	-5.3 M	3.98e-06 M	1.26e-06 M		2e-06 M	0.03 ± 0.002 nM	5.01e-06 M	
